Experimental findings from ChEMBL document CHEMBL6134916, “Novel Substituted Cyclic Compounds as SLC6A19 Inhibitors for Treating Phenylketonuria and Other Amino Acidurias” (ACS Med Chem Lett, 2025) are described below.

For this assay, the target named is T1, Sodium-dependent neutral amino acid transporter B(0)AT1 (Homo sapiens, UniProt Q695T7).
T1 sequence (Q695T7 whole entry): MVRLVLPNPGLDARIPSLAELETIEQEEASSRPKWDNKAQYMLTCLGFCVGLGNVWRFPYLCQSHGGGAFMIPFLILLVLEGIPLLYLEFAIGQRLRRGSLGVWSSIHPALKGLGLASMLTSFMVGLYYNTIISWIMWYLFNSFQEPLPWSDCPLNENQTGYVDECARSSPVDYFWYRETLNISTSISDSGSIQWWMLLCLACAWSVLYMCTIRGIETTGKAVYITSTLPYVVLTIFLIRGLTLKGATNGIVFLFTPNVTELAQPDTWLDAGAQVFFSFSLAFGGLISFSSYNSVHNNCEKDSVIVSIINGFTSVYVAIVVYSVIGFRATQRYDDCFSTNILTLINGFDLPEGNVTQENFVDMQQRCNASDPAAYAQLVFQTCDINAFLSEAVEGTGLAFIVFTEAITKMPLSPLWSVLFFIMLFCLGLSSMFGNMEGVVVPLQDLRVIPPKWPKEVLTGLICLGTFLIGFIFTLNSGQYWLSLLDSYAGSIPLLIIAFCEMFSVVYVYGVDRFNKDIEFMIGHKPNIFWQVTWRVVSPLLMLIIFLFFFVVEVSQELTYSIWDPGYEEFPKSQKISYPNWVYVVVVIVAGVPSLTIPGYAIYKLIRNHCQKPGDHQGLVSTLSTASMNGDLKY
The assay is described as follows: Inhibition of human SLC6A19 expressed in MDCK cells co-expressing human TMEM27 using 13C6/15N-L-Isoleucine as substrate preincubated for 20 mins followed by substrate addition and measured after 20 mins by stable isotope uptake assay. The class given is cell-based.
`CNC(=O)c1cc2c(-c3ccc(C(=O)NCc4cccc(C(F)(F)F)c4)cc3)c(OC)ccc2[nH]1` returned an IC50 of 5 nM.
The molecule `CNC(=O)c1cc2c(-c3ccc(C(=O)NCc4cccc(C(F)(F)F)c4)cc3)ccc(F)c2[nH]1` had an IC50 of 4 nM.
As to `CNC(=O)c1cc2c(-c3ccc(C(=O)NCc4cccc(C(F)(F)F)c4)cc3)cc(C)c(F)c2[nH]1`, the midpoint of inhibition, the IC50, lay at 5 nM.
For the molecule `CNC(=O)c1cc2c(-c3ccc(C(=O)NCc4cc(C(F)(F)F)ccc4F)cc3F)cccc2[nH]1`, half-maximal inhibition (IC50) was put at 4 nM.
The value for `CNC(=O)c1cc2c(-c3ccc(C(=O)NCc4cccc(C(F)(F)F)c4)cc3Cl)cccc2[nH]1` was 3 nM.
Turning to `CNC(=O)c1cc2c(-c3ccc(C(=O)NCc4cccc(C(F)(F)F)c4)cc3)cc(C(C)C)cc2[nH]1`, half-maximal inhibition (IC50) was put at 5 nM.

What is called IC50 is the concentration needed to halve the response being measured. A higher IC50 goes with weaker potency in that assay.
